In patent publication US11180509B2, “Thiazolidone spiro pyrimidine trione compound, preparation method therefor and uses thereof” (SHANGHAI INSTITUTE OF MATERIA MEDICA, CHINESE ACADEMY OF …, priority 2017, dated 2021):
Converted amounts (≈) assume the structure as drawn. Where two headings read alike, the source gives them in different places.

Columns and labels:
[1] = test system: Streptococcus pyogenes; assay: In vitro antibacterial activity, MIC by micro broth dilution; type: cell-based; details: read-out: MIC Spy
Description: (§1) The following strains isolated in clinic were used in antibacterial activity screening in vitro: five strains of methicillin-resistant Staphylococcus aureus or MRSA, five strains of methicillin-sensitive Staphylococcus aureus or MSSA, five strains of methicillin-resistant Staphylococcus epidermidis or MRSE, five strains of methicillin-sensitive Staphylococcus epidermidis or MSSE, three strains of penicillin-resistant Streptococcus pneumoniae or PRSP, and three strains of Streptococcus pyogenes.
(§2) The above strains were clinically isolated pathogenic bacteria collected in Sichuan and Beijing in December 2015. They were identified by the collection unit via a VITEK-60 automatic microbiological identification instrument, and then re-identified by conventional methods in the laboratory. Before the experiment, each strain was purified by a single colony on an agar plate, and the cells freshly cultured at 37° C. overnight were appropriately diluted for the experiment. Quality control strain was Staphylococcus aureus ATCC25923 purchased from the Clinical Testing Center of the Ministry of Health of the People's Republic of China.
(§3) Medium: MH (Mueller-Hinton, hydrolyzed casein) broth (OXOID);
(§4) Culture condition: Incubate at 35-37° C. for 16-18 h.
(§5) The MIC value of each test sample for the tested strain was determined by micro broth dilution method recommended by Performance Standards for Antimicrobial Susceptibility Testing (Twenty-Third Informational Supplement; M02-A11, M07-A9 and M11-A8, 2013) of American Clinical and Laboratory Standards Institute (CLSI).
(§6) After diluting each test sample to different concentrations in MH broth, 100 μl of each sample solution at different concentrations was pipetted into a sterilized 96-well polystyrene plate. In the first to twelfth wells, the drug solution was added, and the final drug concentrations in each well were 64, 32, 16, 8, 4, 2, 1, 0.5, 0.25, 0.125, 0.06, and 0.03 mg/L. The well without drug and without bacteria was set as blank control well. The well with bacteria and without drug was set as a bacterial growth control well.
(§7) The test bacterial solution was adjusted with physiological saline to a bacterial suspension equivalent to 0.5 Maisson turbidity standard, and diluted 1:100 with MH broth. The drug solution was added so that the final concentration of the bacterial solution was about 10^4 CFU/ml; then 100 μl of bacterial solution was pipetted into the above wells (the total volume in each well was 200 μl). The plate was sealed and placed in a 35-37° C. incubator for 18-20 h, and then the results were determined. […] When Streptococcus pneumoniae was tested, sterile defibrillated sheep blood was added into the Colombian broth culture medium at a final concentration of 5% and cultivation was conducted in a 5% CO2 and 35-37° C. incubator for 18-20 hours.

[2] = test system: methicillin-resistant Staphylococcus aureus or MRSA; assay: as above; type: cell-based; details: read-out: MIC MRSA
Description: as §1, §2, §3, §4, §5, §6, §7

[3] = test system: methicillin-resistant Staphylococcus epidermidis or MRSE; assay: as above; type: cell-based; details: read-out: MIC MRSE
Description: as §1, §2, §3, §4, §5, §6, §7

[4] = test system: methicillin-sensitive Staphylococcus aureus or MSSA; assay: as above; type: cell-based; details: read-out: MIC MSSA
Description: as §1, §2, §3, §4, §5, §6, §7

[5] = test system: methicillin-sensitive Staphylococcus epidermidis or MSSE; assay: as above; type: cell-based; details: read-out: MIC MSSE
Description: as §1, §2, §3, §4, §5, §6, §7

[6] = test system: penicillin-resistant Streptococcus pneumoniae or PRSP; assay: as above; type: cell-based; details: read-out: MIC PRSP
Description: as §1, §2, §3, §4, §5, §6, §7

[7] = In vivo pharmacokinetics test in mice (oral); set-up: species or system CD-1 mice; details: PO 10.0 mg/kg
Procedure: Healthy female CD-1 mice were randomly divided into five groups and each group comprised three mice. The tested compound was administered orally.
0.030 mL of blood was taken from the orbit of each animal each time and anticoagulated with EDTAK2. The collection time was as follows. PO group: 15 m, 30 mi, 1 h, 2 h, 4 h, 6 h, 8 h, and 24 h after administration of the test compound. The collected blood samples were placed on ice and centrifuged within 30 minutes to separate the plasma (centrifugation conditions: 5000 rpm, 10 minutes, room temperature). The samples were stored at −80° C. before analysis.

[8] = test system: MRSA, MSSA, MRSE, MSSE, PRSP, and Spy; assay: In vitro antibacterial activity over the whole strain panel, compared with AZD0914; type: cell-based; details: against MRSA
Description: as §1, §2, §5, §6, §7

[9] = In vivo pharmacokinetic test in rats (PO and IV); details: SD rats
Procedure: Nine SD rats were randomly divided into three groups and each group comprised three […].
0.100 mL of blood was taken from the orbit of each animal each time and anticoagulated with EDTAK2. The collection time was as follows. (1) PO group (10.0 mg/kg): 15 min, 30 min, 1 h, 2 h, 4 h, 6 h, 8 h, 24 h after administration of the test compound; PO group (100 mg/kg): 15 min, 30 min 1 h, 2 h, 4 h, 6 h, 8 h, 10 h, 24 h, 36 h, 48 h; (2) IV group: 5 min, 15 min, 30 min, 1 h, 2 h, 4 h, 6 h, 8 h, 24 h after administration of the test compound. The collected blood samples were placed on ice and centrifuged within 30 minutes to separate the plasma (centrifugation conditions: 5000 rpm, 10 minutes, 4° C.). The samples were stored at −80° C. before analysis.

[10] = test system: Staphylococcus aureus MRSA15-3; assay: In vitro antibacterial activity against the in vivo test strain (MIC); type: cell-based; details: MRSA153
Procedure: as §5, §6
The test bacterial solution was adjusted with physiological saline to a bacterial suspension equivalent to 0.5 Maisson turbidity standard, and diluted 1:100 with MH broth. The drug solution was added so that the final concentration of the bacterial solution was about 10^4 CFU/ml; then 100 μl of bacterial solution was pipetted into the above wells (the total volume in each well was 200 μl). The plate was sealed and placed in a 35-37° C. incubator for 18-20 h, and then the results were determined. […]

[11] = test system: S. aureus MRSA15-3 infected mice; assay: In vivo protection test, systemic infection model (ED50); set-up: species or system Kunming mice; details: Staphylococcus aureus
[12] = female, CD-1, mouse, plasma, read-out: Cmax
[13] = female, CD-1, mouse, plasma, read-out: MRT
[14] = female, CD-1, mouse, plasma, read-out: Tmax
[15] = po, read-out: ED50 95% confidence limit

| SMILES | MIC [1] [µg/mL] | MIC [2] [µg/mL] | MIC [3] [µg/mL] | MIC [4] [µg/mL] | MIC [5] [µg/mL] | MIC [6] [µg/mL] | AUC(0-t) ([7]; female, CD-1, mouse, plasma) [ng·h/mL] | half-life ([7]; female, CD-1, mouse, plasma) [h] | Cmax [7, 12] [ng/mL] | MRT [7, 13] [h] | Tmax [7, 14] [h] | MIC [10] [µg/mL] | ED50 [11] [mg/kg] | ED50 [11, 15] [mg/kg] | other results |
| --- | --- | --- | --- | --- | --- | --- | --- | --- | --- | --- | --- | --- | --- | --- | --- |
| C[C@@H]1CN2c3c(cc4c(N5CCSC5=O)noc4c3F)CC3(C(=O)NC(=O)NC3=O)[C@H]2[C@H](C)O1 [Compound 1, (2R,4S,4aS)-11-fluoro-2,4-dimethyl-8-(2-oxothiazolin-3-yl)-1,2,4,4a-tetrahydro-2′H,6H-spiro[isoxazole[4,5-g][1,4]oxazine[4,3-a]quinoline-5,5′-pyrimidine]-2′,4′,6′(1′H,3′H)-trione] | < 0.03 | 0.03 to 0.06 (≈ 0.0613 to 0.123 µM) | < 0.03 | < 0.03 | < 0.03 | < 0.03 |  |  |  |  |  |  |  |  | AUC0→t relative to AZD0914 ([7]; multiple of the AZD0914 value): ~10 times); Cmax relative to AZD0914 ([7]; multiple of the AZD0914 value): ~8 times); AUC0→t ([7]; plasma): 7334 ± 943 ng·h/mL; Cmax ([7]; plasma): 1548 ± 52 ng/mL; MRT ([7]; plasma): 3.70 ± 0.95 h; Tmax ([7]; plasma): 1.33 ± 0.577 h; t1/2 ([7]; plasma): 2.90 ± 1.72 h; in vitro antibacterial activity relative to AZD0914 [8]: about 8 times; melting point: 225 to 226 °C |
| C[C@@H]1CN2c3c(cc4c(N5C[C@H](C)SC5=O)noc4c3F)CC3(C(=O)NC(=O)NC3=O)[C@H]2[C@H](C)O1 [Compound 2, (2R,4S,4aS)-11-fluoro-2,4-dimethyl-8-((S)-5-methyl-2-oxothiazolin-3-yl)-1,2,4,4a-tetrahydro-2′H,6H-spiro[isoxazole[4,5-g][1,4]oxazine[4,3-a]quinoline-5,5′-pyrimidine]-2′,4′,6′(1′H,3′H)-trione] | < 0.03 | 0.03 to 0.25 (≈ 0.0596 to 0.497 µM) | < 0.03 | 0.03 to 0.06 (≈ 0.0596 to 0.119 µM) | < 0.03 | < 0.03 | 24200 ± 5640 | 6.2 ± 1.4 | 2580 ± 713 | 8.94 ± 2.15 | 2.67 ± 1.15 | < 0.03 | 2.54 | 0.11 to 3.71 | AUC0-t (IV) ([9]; IV 10 mg/kg): 89577 ± 9072 ng·h/mL; Cl (IV) ([9]; IV 10 mg/kg): 1.82 ± 0.214 mL/min/kg; T1/2 (IV) ([9]; IV 10 mg/kg): 4.93 ± 0.844 h; Vdss (IV) ([9]; IV 10 mg/kg): 0.675 ± 0.0578 L/kg; % F ([9]; PO 10 mg/kg): 52.0 ± 8.41%; AUC0-t (PO) ([9]; PO 10 mg/kg): 46598 ± 7538 ng·h/mL; Cmax (PO) ([9]; PO 10 mg/kg): 4430 ± 1250 ng/mL; T1/2 (PO) ([9]; PO 10 mg/kg): 4.38 ± 1.21 h; Cmax (PO) ([9]; PO 100 mg/kg): 32069 ± 7934 ng/mL; MRT ([9]; rat, plasma, IV 10 mg/kg, read-out: MRT (IV)): 6.22 ± 0.601 h; Tmax ([9]; rat, plasma, PO 10 mg/kg): 5.33 ± 1.15 h; MRT ([9]; rat, plasma, PO 10 mg/kg, read-out: MRT (PO)): 7.54 ± 0.773 h; AUC(0-t) ([9]; rat, plasma, PO 100 mg/kg): 509000 ± 65900 ng·h/mL; Tmax ([9]; rat, plasma, PO 100 mg/kg): 5.33 ± 1.15 h; bioavailability ([9]; rat, plasma, PO 100 mg/kg): 55.1 ± 7.1%; MRT ([9]; rat, plasma, PO 100 mg/kg, read-out: MRT (PO)): 11.1 ± 2.11 h; half-life ([9]; rat, plasma, PO 100 mg/kg, read-out: T1/2 (PO) (converted)): 4.19 ± 0.23 h |
| C[C@@H]1CN2c3c(cc4c(N5C(=O)OC[C@@H]5C)noc4c3F)CC3(C(=O)NC(=O)NC3=O)[C@H]2[C@H](C)O1 [AZD0914, reference compound] | 0.25 to 0.5 (≈ 0.513 to 1.03 µM) | 0.06 to 1 (≈ 0.123 to 2.05 µM) | 0.06 to 0.25 (≈ 0.123 to 0.513 µM) | 0.125 to 0.25 (≈ 0.256 to 0.513 µM) | 0.06 to 0.25 (≈ 0.123 to 0.513 µM) | 0.25 to 1 (≈ 0.513 to 2.05 µM) | 748 ± 215 | 3.41 ± 0.944 | 183 ± 134 | 7.06 ± 2.92 | 0.583 ± 0.382 | 0.125 (≈ 0.256 µM) | 11.5 | 7.28 to 25.8 |  |
